Source: patent US20260085315A1, “POLYNUCLEOTIDE COMPOSITIONS AND METHODS FOR TREATMENT OF CANCER” (APTAH BIO, INC., priority 2023, published 2026)
d = 2'-deoxy (DNA); m = 2'-O-methyl

Assays:
[1] = system: U87MG (Human Glioblastoma); test: MTT viability assay 48/96/144 h (Example 5); type: cell-based; details: 0.003-30 μM tested
Method: In vitro effects of APT20TTMG on viability and proliferation of human cancer cell line U87MG (Human Glioblastoma) were also evaluated by MTT and BrdU assays, respectively. Cells were treated with APT20TTMG and Reference Items in technical triplicates (Experiment was done in 3 different sets) at various concentrations for 48 h, 96 h, and 144 h. APT20TTMG and Reference Items were read after every 48 h.
As shown in FIGS. 32-33, A MTT assay (FIG. 32) was also performed with another five different concentrations of APT20TTMG (0.003, 0.03, 0.3, 3, and 30 μM) and at 48, 96, and 144 hours of incubation. […] Finally, to confirm whether APT20TTMG is a cytotoxic or cytostatic molecule considering its ability to reduce cellular viability in certain concentrations, a cell proliferation assay (FIG. 33) with the U87-MG cell line was also performed in the same conditions as the MTT assay. […] Cells were plated and treated with 5 different concentrations (0.003, 0.03, 0.3, 3, and 30 μM). BrdU assay was performed after 48, 96, or 144 hours of incubation. Data are plotted as a percentage (%) of cell viability compared to the negative control group (vehicle). Results are expressed as Mean±SEM of three independent experiments performed in three technical replicates. […]

[2] = Body weight in xenograft study; type: in vivo, athymic nude mice; details: 20 mg/kg i.v. q3d, 3 weeks
Method: Body weight and tumor size were measured weekly twice using digital caliper. At termination, blood was collected through retro-orbital route. Serum/plasma was separated and stored at deep freezer (−20° C.). Post blood collection, animals were humanely sacrificed by CO2 asphyxiation as per latest guidelines issued by CPCSEA. All the vital organ (brain, kidney, liver, lungs, heart) and tumor were dissected out. Vital organs were fixed in 10% NBF and stored. Tumor tissue was dissected out, weighed and portion of tumor tissue was fixed in 10% NBF and another portion is snap frozen and stored at deep freezer (−80° C.).
As shown in FIG. 34A-C, tumor fragments from the U-87MG cell line were implanted in the animals and once the tumor size reached ˜100 mm^3 animals were randomized into 3 experimental groups (G1, G2, and G3). G1: Vehicle, (G2) Reference Item Temozolomide, and (G3) APT20TTMG for a total of 22 days. (A) The tumor volume of the animals was measured twice/a week. (B) Animals were weighed throughout the experiment and the change in weight gain compared to pre-treatment weight was plotted. (C) After the euthanasia of the animals, the tumors were removed and weighed.

MCF-7 cell line = test: Annexin V/propidium iodide apoptosis assay; type: cell-based, Human; details: 0.25, 0.5, 1 μM; 24 hours; vs non-treated cells
Method: The apoptosis-inducing potential of ASMO APT20TTMG was evaluated using the method of double labeling of cells with Annexin V and propidium iodide. Annexin V is a peptide that has a high affinity for phosphatidyl serine, a phospholipid distributed asymmetrically in the inner leaflet of the lipid bilayer of membrane plasma under physiological conditions. During the process of cell death by apoptosis, phospholipids asymmetric distribution is lost and phosphatidyl serine is translocated to the outer leaflet of the plasma membrane through a process of externalization. The measurement of the exposure of phosphatidylserine could be detected by Annexin V conjugated to fluorochromes. On the other hand, propidium iodide is a DNA intercalator that only can penetrate the interior of the cell in cases where the selective permeability of the plasma membrane is compromised, which clearly occurs during several processes of cell death.
Pro-apoptotic potential of APT20TTMG was evaluated in the MCF-7 cell line, using the Apoptosis Detection with Annexin V/Propidium Iodide kit (eBioScience). First, cells were cultured in 24-well plates at a density of 1×10^5 cells/well for 24 hours for adhesion. […] Finally, the samples were labeled with Propidium Iodide and analyzed in a flow cytometer (BD FACSCanto II, BD Biosciences) through the acquisition of 10.000 gated events/sample.

786-O line = test: MTT cytotoxicity assay on human cancer cell panel (Example 2); type: cell-based; details: 0.03-30 μM, 0.1% FBS
Method: Cell lines were maintained in growth medium with 10% of Fetal Bovine Serum (FBS) until the time of the experiments. Cells were sub-cultured by trypsinization and splitting the cell suspension into fresh flasks and supplementing with fresh culture medium. To perform the assay, the cells were trypsinized, neutralized with complete medium (10% FBS), centrifuged, counted with assistance of a hemocytometer, and plated with the respective media with 10% FBS. Cell lines were plated at a density of 1×10^4 cells per well, other than the SH-SY5Y cell line which was plated at a density of 2.5×10^4. The preparation of the different experimental groups was done with 0.1% FBS (U87MG, MCF-7, SH-SY5Y and 786-O) and 1% FBS (PC-3). The untreated cells were used as negative control (medium only). After 24, 48, 72 and 96 hours of incubation, the effect of ASMO1 and controls on cytotoxicity of cells was determined by MTT assay.
Briefly, plates were taken out and 20 μl of 5 mg/ml of MTT 3-(4,5-dimethythiazol-2-yl)-2,5-diphenyl tetrazolium bromide solution was added to all the wells. […] The absorbance of each well was then read at 540 nm using Synergy HT microplate reader.
Cells were plated and treated with 7 different concentrations (0.03, 0.1, 0.3, 1, 3, 10 and 30 μM) of APT20TTMG with medium (0.1% FBS). MTT assay was performed in 3 distinct times and graphs are represented as absorbance (540 nm). […]

[3] = system: neuroblastoma cell line SH-SY5Y; test: Kinetics of internalization; type: cell-based, Human; details: all evaluated times
SH-SY5Y cell line = test: Apoptosis/necrosis phase distribution; type: cell-based, Human; details: 0.25 μM; 24 hours

## APT20TTMG: engineered polynucleotide ASMO1, 24 nt, SEQ ID NO: 3 gtccactaacctttcaggccagcg; targeting moieties 5′-GTCCA-3′ and 5′-CG-3′, U1 snRNP recruiting moiety (GTCCACTAACCTTTCAGGCCAGCG; sugars from the 5' end m5 d14 m5, all phosphorothioate, methylation of C and T or U not given here)
[1]; 96 and 144 hours
  concentrations observed to reduce cell viability (MTT): ≥ 0.3 µM
[1]; 48 hours
  concentration observed to reduce cell viability (MTT): 30 µM
[2]
  body weight of animals: gain weight throughout the experiment
MCF-7 cell line
  proportion of viable cells, recent/late apoptosis or necrosis: no change in any of the evaluated parameters
786-O line; 48 and 72 hours
  cell viability (MTT): no difference when compared to the control (vehicle group), only in the highest concentration (30 μM)
786-O line; 24 hours
  cell viability (MTT): can alter cell viability
[3]
  internalization: around 50%
SH-SY5Y cell line
  necrotic cells: increase in necrotic cells
